# Where a SMILES comes first, the peptide text is derived from it. [ ]: non-standard residue; d: D form. AEEA = NCCOCCOCC(=O)O
# Legend:
# [1] = tested on: murine bone marrow derived macrophages; test: LPS-stimulated bone marrow derived macrophages, cytokine ELISA; type: cell-based; conditions: after LPS-stimulation
# Method: FIG. 5—Peptide administration reduces the activation of pro-inflammatory DCs and macrophages. (A) C57BL/6 murine splenocytes were stimulated with LPS±peptide RP23 (SEQ ID NO:12) and expression of activation markers on DCs was assessed by flow cytometry. (B) Bone marrow derived murine macrophages were incubated with peptide RP23 (30 mins) and stimulated with LPS (overnight). Positive controls were stimulated with LPS only. Negative controls were unstimulated. Inflammatory cytokine production was assessed by ELISA. (C) CD14+ cells were isolated from human blood and differentiated into macrophages by culturing with human serum. Cells were incubated with peptide RP23 (30 mins), then stimulated overnight with LPS (left panel) or imiquimod (right panel). Inflammatory cytokine (IL-6 or IL-12/23) production was assessed by ELISA. Representative of 6 donors. Data are presented as mean±S.E.M. Statistical significance was determined by ANOVA with Dunnett's multiple comparison test, *p<0.05, **p<0.01, ***p<0.001.
# Using an in vitro culture system, it was determined whether RP23 could suppress the activity of specific pro-inflammatory immune cells. […] The culture of murine bone marrow derived macrophages with RP23 led to reduced IL-6, MCP-1 and TNF release after LPS-stimulation (FIG. 5b). Similarly, primary human blood derived macrophages had reduced IL-6 and IL-12/23 release after stimulation with either LPS or imiquimod (FIG. 5c).
# CD11c+ dendritic cells = test: MHCII on CD11c+ dendritic cells after intra-nasal instillation; type: in vivo, mice
# Method: FIG. 15. Mucosal delivery of RP23 to the lungs decreases activation of antigen presenting cells in the lungs and bronchoalveolar space. (A) C57BL/6 mice (n=5) received either PBS or RP23 by intra-nasal instillation or (B) C57BL/6 mice (n=4) received either PBS, scramble RP23 peptide, or RP23 by intra-nasal instillation, then 24 hours later, Pam2Cys-SK4-PEG(OH) intra-nasally to induce an inflammatory state. 24 hours later, cells from the bronchoalveolar lavage and perfused lungs were collected. The median fluorescence intensity of MHCII on CD11c^+ dendritic cells was determined by flow cytometry. Data are the means+/−SEM. Statistical significance was determined by (A) t-test, ***p<0.001 and (B) ANOVA with Dunnett's multiple comparison test to PBS control, *p<0.05.
# Naïve C57BL/6 mice (n=5) received either PBS or RP23 by intra-nasal instillation, then 24 hours later, cells from the bronchoalveolar lavage and perfused lungs were collected. The median fluorescence intensity of MHCII on CD11c+ dendritic cells was determined by flow cytometry. […] To determine if this effect would be maintained once potent lung inflammation was induced, C57BL/6 mice (n=4) received either PBS, scramble RP23 peptide, or RP23 by intra-nasal instillation, then 24 hours later, Pam2Cys-SK4-PEG(OH) was given intra-nasally to induce an inflammatory state.
# mice = test: tolerability of injection in mice; type: in vivo; conditions: even 10 nmol daily for 6 days sub-cutaneous (data not shown)
# [2] = Pam2Cys-SK4-PEG(OH) intra-nasally 24 hours after peptide
structure (smiles),measurement,setting,value
CSCC[C@H](NC(=O)COCCOCCNC(=O)[C@H](CCCCN)NC(=O)[C@H](CCCCN)NC(=O)[C@H](CCCCN)NC(=O)[C@@H](N)CCCCN)C(=O)N[C@H](C(=O)N1CCC[C@H]1C(=O)NCC(=O)N[C@H](C(=O)N[C@@H](CCC(N)=O)C(=O)N[C@@H](CO)C(=O)N1CCC[C@H]1C(=O)N[C@@H](Cc1ccccc1)C(=O)N[C@@H](Cc1ccccc1)C(=O)N[C@@H](CC(C)C)C(=O)N[C@@H](CC(C)C)C(=O)N[C@@H](CC(C)C)C(=O)N[C@@H](CC(C)C)C(=O)N[C@@H](CC(C)C)C(=O)N[C@H](C(=O)N[C@H](C(=O)N[C@@H](CC(C)C)C(=O)N[C@H](C(=O)N[C@H](C(=O)N[C@H](C(=O)O)C(C)C)C(C)C)[C@@H](C)O)C(C)C)[C@@H](C)O)[C@@H](C)O)[C@@H](C)O [RP23] (H-KKKK[AEEA]MTPGTQSPFFLLLLLTVLTVV-OH),IL-6 release,[1],reduced
same,MCP-1 release,[1],reduced
same,TNF release,[1],reduced
same,MHCII expression on DC in the bronchoalveolar space,CD11c+ dendritic cells; [2],also on DC in the bronchoalveolar space
same,MHCII expression on lung DC,CD11c+ dendritic cells; [2],reduced MHCII expression on lung DC
same,MHCII expression on DC in the lung tissue,"CD11c+ dendritic cells; naive mice, 24 hours after intra-nasal instillation",substantially reduced
same,adverse reactions,mice,No adverse reactions of any kind

# From patent publication US20230002446A1, “ANTI-INFLAMMATORY AGENTS” (The University of Sydney, priority 2019, published 2023)
